{"source": "paper PMC9262584", "about": "(2022)", "assay_in_all_cases": "ITC", "conditions_in_all_cases": "50 mM KCl, 5 mM MgCl2 (RNA wash buffer); 50 mM Bis-Tris pH 6.1; individual ITC conditions in SI Figures S11/S12", "key": {"[1]": {"test_system": "pilM^99 (RNA, riboswitch) GAUAUCGACAAUACUAAACCAUCCGCGAGGGUGGGACGGAAAGCCUACAGGGUCUCUCUGAGACAGCCGGGAUGCCGAAAUAUCACAAUUCGUGAUGCU"}, "[2]": {"test_system": "pilM^103 (RNA, riboswitch) GAUAUCGACAAUACUAAACCAUCCGCGAGGGUGGGACGGAAAGCCUACAGGGUCUCUCUGAGACAGCCGGGAUGCCGAAAUAUCACAAUUCGUGAUGCUCGGU"}, "[3]": {"test_system": "pilM^88 (RNA, riboswitch) GAUAUCGACAAUACUAAACCAUCCGCGAGGGUGGGACGGAAAGCCUACAGGGUCUCUCUGAGACAGCCGGGAUGCCGAAAUAUCACAA"}, "[4]": {"test_system": "pilM^105 (RNA, riboswitch) GAUAUCGACAAUACUAAACCAUCCGCGAGGGUGGGACGGAAAGCCUACAGGGUCUCUCUGAGACAGCCGGGAUGCCGAAAUAUCACAAUUCGUGAUGCUCGGUCC"}, "[5]": {"test_system": "pilM^106 (RNA, riboswitch) GAUAUCGACAAUACUAAACCAUCCGCGAGGGUGGGACGGAAAGCCUACAGGGUCUCUCUGAGACAGCCGGGAUGCCGAAAUAUCACAAUUCGUGAUGCUCGGUCCC"}, "[6]": {"test_system": "pilM^82 (RNA, riboswitch) GAUAUCGACAAUACUAAACCAUCCGCGAGGGUGGGACGGAAAGCCUACAGGGUCUCUCUGAGACAGCCGGGAUGCCGAAAUA"}, "[7]": {"test_system": "pilM^91 (RNA, riboswitch) GAUAUCGACAAUACUAAACCAUCCGCGAGGGUGGGACGGAAAGCCUACAGGGUCUCUCUGAGACAGCCGGGAUGCCGAAAUAUCACAAUUC"}, "[8]": {"test_system": "pilM^100 (RNA, riboswitch) GAUAUCGACAAUACUAAACCAUCCGCGAGGGUGGGACGGAAAGCCUACAGGGUCUCUCUGAGACAGCCGGGAUGCCGAAAUAUCACAAUUCGUGAUGCUC"}, "[9]": {"test_system": "pilM^96 (RNA, riboswitch) GAUAUCGACAAUACUAAACCAUCCGCGAGGGUGGGACGGAAAGCCUACAGGGUCUCUCUGAGACAGCCGGGAUGCCGAAAUAUCACAAUUCGUGAU"}, "[10]": {"test_system": "pilM^14-75 (RNA, riboswitch) GCUAAACCAUCCGCGAGGGUGGGACGGAAAGCCUACAGGGUCUCUCUGAGACAGCCGGGAUGC"}, "[11]": {"test_system": "pilM^97 (RNA, riboswitch) GAUAUCGACAAUACUAAACCAUCCGCGAGGGUGGGACGGAAAGCCUACAGGGUCUCUCUGAGACAGCCGGGAUGCCGAAAUAUCACAAUUCGUGAUG"}, "[12]": {"test_system": "pilM^79 (RNA, riboswitch) GAUAUCGACAAUACUAAACCAUCCGCGAGGGUGGGACGGAAAGCCUACAGGGUCUCUCUGAGACAGCCGGGAUGCCGAA"}, "[13]": {"test_system": "pilM^77 (RNA, riboswitch) GAUAUCGACAAUACUAAACCAUCCGCGAGGGUGGGACGGAAAGCCUACAGGGUCUCUCUGAGACAGCCGGGAUGCCG"}, "[14]": {"test_system": "pilM^95 (RNA, riboswitch) GAUAUCGACAAUACUAAACCAUCCGCGAGGGUGGGACGGAAAGCCUACAGGGUCUCUCUGAGACAGCCGGGAUGCCGAAAUAUCACAAUUCGUGA"}, "[15]": {"test_system": "pilM^75 (RNA, riboswitch) GAUAUCGACAAUACUAAACCAUCCGCGAGGGUGGGACGGAAAGCCUACAGGGUCUCUCUGAGACAGCCGGGAUGC"}, "[16]": {"test_system": "pilM^83 (RNA, riboswitch) GAUAUCGACAAUACUAAACCAUCCGCGAGGGUGGGACGGAAAGCCUACAGGGUCUCUCUGAGACAGCCGGGAUGCCGAAAUAU"}, "[17]": {"test_system": "pilM^84 (RNA, riboswitch) GAUAUCGACAAUACUAAACCAUCCGCGAGGGUGGGACGGAAAGCCUACAGGGUCUCUCUGAGACAGCCGGGAUGCCGAAAUAUC"}, "[18]": {"test_system": "pilM^102 (RNA, riboswitch) GAUAUCGACAAUACUAAACCAUCCGCGAGGGUGGGACGGAAAGCCUACAGGGUCUCUCUGAGACAGCCGGGAUGCCGAAAUAUCACAAUUCGUGAUGCUCGG"}, "[19]": {"test_system": "pilM^101 (RNA, riboswitch) GAUAUCGACAAUACUAAACCAUCCGCGAGGGUGGGACGGAAAGCCUACAGGGUCUCUCUGAGACAGCCGGGAUGCCGAAAUAUCACAAUUCGUGAUGCUCG"}, "[20]": {"test_system": "pilM^109 (RNA, riboswitch) GAUAUCGACAAUACUAAACCAUCCGCGAGGGUGGGACGGAAAGCCUACAGGGUCUCUCUGAGACAGCCGGGAUGCCGAAAUAUCACAAUUCGUGAUGCUCGGUCCCGGC"}, "[21]": {"test_system": "pilM^80 (RNA, riboswitch) GAUAUCGACAAUACUAAACCAUCCGCGAGGGUGGGACGGAAAGCCUACAGGGUCUCUCUGAGACAGCCGGGAUGCCGAAA"}, "[22]": {"test_system": "pilM^93 (RNA, riboswitch) GAUAUCGACAAUACUAAACCAUCCGCGAGGGUGGGACGGAAAGCCUACAGGGUCUCUCUGAGACAGCCGGGAUGCCGAAAUAUCACAAUUCGU"}}, "data": [{"molecule": "Nc1nc2c(ncn2[C@@H]2O[C@@H]3COP(=O)(O)O[C@H]4[C@@H](O)[C@H](n5cnc6c(N)ncnc65)O[C@@H]4COP(=O)(O)O[C@H]3[C@H]2O)c(=O)[nH]1", "values": [{"measurement": "KD", "setting": "[1]", "result": "0.00025 ± 4e-05", "unit": "mM"}, {"measurement": "KD", "setting": "[2]", "result": "> >100 μM"}, {"measurement": "KD", "setting": "[3]", "result": "0.00025 ± 4e-05", "unit": "mM"}, {"measurement": "KD", "setting": "[4]", "result": "> >100 μM"}, {"measurement": "KD", "setting": "[5]", "result": "> >100 μM"}, {"measurement": "KD", "setting": "[6]", "result": "0.00212 ± 0.00017", "unit": "mM"}, {"measurement": "KD", "setting": "[7]", "result": "0.00032 ± 5e-05", "unit": "mM"}, {"measurement": "KD", "setting": "[8]", "result": "0.0005 ± 0.0003", "unit": "mM"}, {"measurement": "KD", "setting": "[9]", "result": "0.0029 ± 0.0015", "unit": "mM"}, {"measurement": "KD", "setting": "[10]", "result": "0.012 ± 0.005", "unit": "mM"}, {"measurement": "KD", "setting": "[11]", "result": "0.0016 ± 0.0007", "unit": "mM"}, {"measurement": "KD", "setting": "[12]", "result": "0.017 ± 0.011", "unit": "mM"}, {"measurement": "KD", "setting": "[13]", "result": "0.019 ± 0.019", "unit": "mM"}, {"measurement": "KD", "setting": "[14]", "result": "0.0016 ± 0.0006", "unit": "mM"}, {"measurement": "KD", "setting": "[15]", "result": "> >100 μM"}, {"measurement": "KD", "setting": "[16]", "result": "0.00167 ± 9e-05", "unit": "mM"}, {"measurement": "KD", "setting": "[17]", "result": "0.00044 ± 6e-05", "unit": "mM"}, {"measurement": "KD", "setting": "[18]", "result": "> >100 μM"}, {"measurement": "KD", "setting": "[19]", "result": "0.0013 ± 0.0005", "unit": "mM"}, {"measurement": "KD", "setting": "[20]", "result": "> >100 μM"}, {"measurement": "KD", "setting": "[21]", "result": "0.0085 ± 0.0014", "unit": "mM"}, {"measurement": "KD", "setting": "[22]", "result": "0.00038 ± 6e-05", "unit": "mM"}]}]}
